In PubChem BioAssay (NCI):
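Assay format: 96-well plates, 48-hour exposure. TGI is the concentration that stops growth completely.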

Experiments:
Assay in all cases: growth of human tumour cells (NCI), 48 h
[1] = test system: HOP-92 NSCLC
[2] = test system: CCRF-CEM leukemia
[3] = test system: ACHN renal
[4] = test system: M19-MEL melanoma
[5] = test system: KM20L2 colon
[6] = test system: COLO 205 colon
[7] = test system: OVCAR-4 ovarian
[8] = test system: UACC-62 melanoma
[9] = test system: CAKI-1 renal
[10] = test system: LOX IMVI melanoma
[11] = test system: TK-10 renal
[12] = test system: SNB-19 CNS
[13] = test system: SNB-75 CNS
[14] = test system: SNB-78 CNS
[15] = test system: HCC-2998 colon
[16] = test system: DMS 273 small cell lung
[17] = test system: U251 CNS
[18] = test system: IGROV1 ovarian
[19] = test system: NCI-H522 lung
[20] = test system: SK-OV-3 ovarian
[21] = test system: HCT-116 colon
[22] = test system: HCT-15 colon
[23] = test system: OVCAR-8 ovarian
[24] = test system: HL-60(TB) leukemia
[25] = test system: NCI-H460 lung
[26] = test system: A549 NSCLC
[27] = test system: SK-MEL-5 melanoma
[28] = test system: RPMI-8226 leukemia
[29] = test system: MALME-3M melanoma
[30] = test system: MOLT-4 leukemia
[31] = test system: HT29 colon
[32] = test system: M14 melanoma
[33] = test system: 786-0 renal
[34] = test system: SF-268 CNS
[35] = test system: UO-31 renal
[36] = test system: SK-MEL-2 melanoma
[37] = test system: SF-539 CNS
[38] = test system: SW-620 colon
[39] = test system: DMS 114 small cell lung
[40] = test system: K-562 leukemia
[41] = test system: OVCAR-5 ovarian
[42] = test system: SF-295 CNS
[43] = test system: SK-MEL-28 melanoma
[44] = test system: NCI-H23 lung
[45] = test system: KM12 colon
[46] = test system: SR leukemia
[47] = test system: OVCAR-3 ovarian
[48] = test system: HOP-18 NSCLC
[49] = test system: UACC-257 melanoma
[50] = test system: HOP-62 NSCLC
[51] = test system: DLD-1 colon
[52] = test system: RXF 393 renal
[53] = test system: A498 renal
[54] = test system: SN12C renal
[55] = test system: LXFL 529 NSCLC
[56] = test system: EKVX NSCLC
[57] = test system: XF 498 CNS
[58] = test system: NCI-H226 lung

With CCSCN(C)c1nc(N(C)C)nc(N(C)C)n1 the TGI [1] was > 100 µM, the TGI [2] was > 100 µM and the TGI [3] was > 100 µM. For the same compound, the TGI [4] was > 100 µM, the TGI [5] was > 100 µM and the TGI [6] was > 100 µM. For the same compound, the TGI [7] was > 100 µM, the TGI [8] was > 100 µM and the TGI [9] was > 100 µM. The TGI [10] was > 100 µM, the TGI [11] was > 100 µM and the TGI [12] was > 100 µM. The TGI [13] was > 100 µM, the TGI [14] was > 100 µM and the TGI [15] was > 100 µM. The TGI [16] was > 100 µM, the TGI [17] was > 100 µM and the TGI [18] was > 100 µM. For the same compound, the TGI [19] was 91.4 µM, the TGI [20] was > 100 µM and the TGI [21] was > 100 µM. For the same compound, the TGI [22] was > 100 µM, the TGI [23] was > 100 µM and the TGI [24] was 81.9 µM. For the same compound, the TGI [25] was > 100 µM, the TGI [26] was > 100 µM and the TGI [27] was > 100 µM. The TGI [28] was > 100 µM, the TGI [29] was > 100 µM and the TGI [30] was > 100 µM. For the same compound, the TGI [31] was > 100 µM, the TGI [32] was > 100 µM and the TGI [33] was > 100 µM. For the same compound, the TGI [34] was > 100 µM, the TGI [35] was > 100 µM and the TGI [36] was > 100 µM. For the same compound, the TGI [37] was > 100 µM, the TGI [38] was > 100 µM and the TGI [39] was 89.7 µM. The TGI [40] was > 100 µM, the TGI [41] was > 100 µM and the TGI [42] was > 100 µM. For the same compound, the TGI [43] was > 100 µM, the TGI [44] was > 100 µM and the TGI [45] was > 100 µM. The TGI [46] was > 100 µM, the TGI [47] was > 100 µM and the TGI [48] was > 100 µM. For the same compound, the TGI [49] was > 100 µM, the TGI [50] was > 100 µM and the TGI [51] was > 100 µM. For the same compound, the TGI [52] was 61.3 µM, the TGI [53] was > 100 µM and the TGI [54] was > 100 µM. The TGI [55] was > 100 µM and the TGI [56] was > 100 µM.

In the case of Cc1c2c(cc3c1C(=O)C(=O)C1=C3OC[C@@H]1C)C(C)(C)CCC2, the TGI [1] is reported as 61.2 µM, the TGI [2] is reported as 42 µM and the TGI [3] is reported as 38.3 µM. The TGI [4] was 6.68 µM, the TGI [5] was 44.5 µM and the TGI [6] was 20.4 µM. For the same compound, the TGI [7] was 51.8 µM, the TGI [8] was 25.9 µM and the TGI [9] was > 100 µM. For the same compound, the TGI [10] was 20.5 µM, the TGI [11] was 56.7 µM and the TGI [12] was 49.3 µM. It also gave a TGI [13] of 41.9 µM, a TGI [15] of 42.4 µM and a TGI [16] of 28.5 µM. It also gave a TGI [17] of 34.4 µM, a TGI [18] of 49.8 µM and a TGI [20] of 82.8 µM. It also gave a TGI [21] of 26.7 µM, a TGI [22] of 27.6 µM and a TGI [23] of 52.5 µM. It also gave a TGI [24] of 26.9 µM, a TGI [25] of 28.1 µM and a TGI [26] of 26.8 µM. The TGI [27] was 26.1 µM, the TGI [29] was 29 µM and the TGI [30] was 32 µM. The TGI [31] was 32.5 µM, the TGI [32] was 26.9 µM and the TGI [33] was 75.9 µM. The TGI [34] was 35.4 µM, the TGI [35] was 46.1 µM and the TGI [36] was 21.2 µM. It also gave a TGI [37] of 29.8 µM, a TGI [38] of 28.4 µM and a TGI [39] of 31.9 µM. For the same compound, the TGI [40] was 34.5 µM, the TGI [41] was 40.2 µM and the TGI [42] was 27.8 µM. For the same compound, the TGI [43] was 27.3 µM, the TGI [44] was 28.4 µM and the TGI [45] was 24.7 µM. The TGI [46] was 50.2 µM, the TGI [47] was 34.9 µM and the TGI [48] was 32.3 µM. It also gave a TGI [49] of 28.4 µM, a TGI [50] of 36.4 µM and a TGI [51] of 59.5 µM. The TGI [57] was 55.7 µM, the TGI [52] was 33.5 µM and the TGI [53] was 59.6 µM. It also gave a TGI [54] of 34.6 µM, a TGI [55] of 37.6 µM and a TGI [56] of 58.7 µM.

COc1cc(C2C(Cl)C(=O)N2NC(=O)c2ccc(NC(C)=O)cc2)ccc1O (stereo not drawn) was tested, and the TGI [1] was > 100 µM, the TGI [2] was > 100 µM and the TGI [3] was > 100 µM. The TGI [4] was > 100 µM, the TGI [5] was > 100 µM and the TGI [6] was > 100 µM. The TGI [7] was > 100 µM, the TGI [8] was > 100 µM and the TGI [9] was > 100 µM. The TGI [10] was > 100 µM, the TGI [11] was > 100 µM and the TGI [12] was > 100 µM. The TGI [14] was > 100 µM, the TGI [16] was > 100 µM and the TGI [17] was > 100 µM. For the same compound, the TGI [18] was > 100 µM, the TGI [19] was > 100 µM and the TGI [20] was > 100 µM. The TGI [21] was > 100 µM, the TGI [22] was > 100 µM and the TGI [23] was > 100 µM. For the same compound, the TGI [24] was > 100 µM, the TGI [25] was > 100 µM and the TGI [26] was > 100 µM. For the same compound, the TGI [27] was > 100 µM, the TGI [28] was > 100 µM and the TGI [29] was > 100 µM. For the same compound, the TGI [30] was > 100 µM, the TGI [31] was > 100 µM and the TGI [32] was > 100 µM. For the same compound, the TGI [33] was > 100 µM, the TGI [34] was > 100 µM and the TGI [35] was > 100 µM. For the same compound, the TGI [36] was > 100 µM, the TGI [37] was > 100 µM and the TGI [38] was > 100 µM. For the same compound, the TGI [39] was > 100 µM, the TGI [40] was > 100 µM and the TGI [41] was > 100 µM. The TGI [42] was > 100 µM, the TGI [43] was > 100 µM and the TGI [44] was > 100 µM. The TGI [58] was > 100 µM, the TGI [47] was > 100 µM and the TGI [49] was > 100 µM. The TGI [50] was > 100 µM, the TGI [51] was > 100 µM and the TGI [57] was > 100 µM. The TGI [52] was > 100 µM, the TGI [53] was > 100 µM and the TGI [54] was > 100 µM. The TGI [55] was > 100 µM and the TGI [56] was > 100 µM.
